This assay relates to Aβ production in 293 751 SWE and CHO 751 SWE cells (transfected with APP-751 Swedish mutation). Description: Aβ production inhibition activity in cells (Aβ ELISA of conditioned media, normalized for cytotoxicity by MTT). Type of assay: cell-based. The settings on record: for inhibition at 5 µg/mL: 5 μg/ml; for IC50: 2 h pretreatment + 2 h incubation. As for the experimental part:
Two cell lines (human kidney cell line 293 and Chinese hamster ovary cell line CHO) were stably transfected with the gene for APP-751 containing the double mutation Lys651 -Met652 to Asn651 -Leu652 (APP-751 numbering) commonly called the Swedish mutation using the method described in Citron et al., (1992) Nature 360:672-674. The transfected cell lines were designated as 293 751 SWE and CHO 751 SWE, and were plated in Corning 96 well plates at 2.5×10^4 or 1×10^4 cells per well respectively in Dulbecco's minimal essential media plus 10% fetal bovine serum. Following overnight incubation at 37° C. in an incubator equilibrated with 10% carbon dioxide (CO2), the media were removed and replaced with 200 μL per well of media containing a test compound. After a two hour pretreatment period, the media were again removed and replaced with fresh media containing the test compound and the cells were incubated for an additional two hours.
Test compound stocks were prepared in DMSO such that at the final concentration used in the treatment, the concentration of DMSO did no exceed 0.5%. After treatment, plates were centrifuged in a Beckman GPR at 1200 rpm for five minutes at room temperature to pellet cellular debris from the conditioned media. From each well, 100 μL of conditioned media were transferred into an ELISA plate precoated with antibody 266 against βAP-13-28 (Seubert et al., supra.) and stored at 4° C. overnight. An ELISA assay employing labeled antibody 6C6 (against βAP-1-16) was run the next day to measure the amount of Aβ produced.
Cytotoxic effects of the test compounds were measured by a modification of the method of Hansen et al., (1989) J. Immun. Meth. 119:203-210. To the cells remaining in the tissue culture plate, was added 25 μL of a 3, (4,5-dimethylthiazol-2-yl)2,5-diphenyltetrazolium bromide (MTT) stock solution (5 mg/mL) to a final concentration of […]. Cells were incubated at 37° C. for one hour, and cellular activity was stopped by the addition of an equal volume of MTT lysis buffer (20% w/v sodium dodecylsulfate in 50% DMF, pH 4.7). Complete extraction was achieved by overnight shaking at room temperature. The difference in the OD562 nm and the OD650 nm was measured in a Molecular Devices UVmax microplate reader as an indicator of the cellular viability.
The results of the Aβ ELISA were fit to a standard curve and expressed as ng/mL Aβ peptide. In order to normalize for cytotoxicity, these Aβ results were divided by the MTT results and expressed as a percentage of the results from a drug -free control.
The test compounds were assayed for Aβ production inhibition activity in cells at […] using the test. The results presented in Table 1 are the mean and standard deviation of at least six replicate assays. IC50 means the concentration of test compound in micromoles/liter required to inhibit Aβ production by 50%.

The mark [1] stands for this setting: 10 μg/ml, % of drug-free control, normalized to MTT.

The compound `CCCCCCNC(=S)N(O)Cc1ccc(OCc2cc(OC)cc(OC)c2)cc1` [Compound 61] had an inhibition at 5 µg/mL of 28%. Regarding `CCCCc1ccc(COc2ccc(CN(O)C(=S)NCc3ccccc3)cc2)cc1` [Compound 62], the inhibition at 5 µg/mL came out at 17%. Still for that read-out and setting: under `CCCCCCNC(=S)N(O)Cc1ccc(OCc2ccc(CCCC)cc2)cc1` [Compound 63] stands 9%.

As to `ON(Cc1ccc(OCc2c(Cl)cccc2Cl)cc1)C(=S)NCc1ccccc1` [Compound 64], under setting [1], at 10 µg/mL the inhibition was 18%. For the compound `Cc1cccc(CNC(=S)N(O)Cc2ccc(OCc3c(Cl)cccc3Cl)cc2)c1` [Compound 65], under setting [1], at 10 µg/mL the inhibition was 7%. The compound `CCCCOc1ccc(COc2cccc(CN(O)C(=S)NCc3ccccc3)c2)cc1` [Compound 66] returned an inhibition at 10 µg/mL under setting [1] of 21%. As for `CCCc1c(COc2ccc(CN(O)C(=S)NCc3ccccc3)cc2)ccc(C(C)=O)c1O` [Compound 67], testing at 10 µg/mL under setting [1] gave an inhibition of 42%. As for `CCCCCCNC(=S)N(O)Cc1ccc(OCc2ccc(C(C)=O)c(O)c2CCC)cc1` [Compound 68], the IC50 turned out to be 19.7 µM. In turn, `CCCc1c(COc2ccc(CN(O)C(=S)Nc3ccc(Cl)c(C(F)(F)F)c3)cc2)ccc(C(=O)c2ccccc2)c1O` [Compound 69] returned an inhibition at 10 µg/mL under setting [1] of 14%. As for `CCCCCCNC(=S)N(O)Cc1cccc(OCc2ccc(C(=O)CC)c(O)c2CCC)c1` [Compound 70], at 10 µg/mL the inhibition under setting [1] was 37%. In the case of `COc1c(C(C)(C)C)cc(COc2cccc(CN(O)C(=S)NCc3ccccc3)c2)cc1C(C)(C)C` [Compound 72], the half-maximal inhibitory concentration (IC50) was determined as 8.1 µM. For `COc1c(C(C)(C)C)cc(COc2ccc(CN(O)C(=S)NCc3ccccc3)cc2)cc1C(C)(C)C` [Compound 73], the IC50 turned out to be 5.9 µM.

Consider `CC(c1cccc(OCc2ccc(C(C)(C)C)cc2)c1)N(O)C(=S)NCc1ccccc1` (centres unmarked) [Compound 75], for which the 50% inhibitory concentration (IC50) turned out to be 8.9 µM. Under setting [1], `ON(Cc1ccc(-c2ccccc2)cc1)C(=S)NCc1ccc(Cl)c(Cl)c1` [Compound 76] gave an inhibition at 10 µg/mL of 13%. `ON(Cc1ccc(-c2ccccc2)cc1)C(=S)NCc1ccccc1` [Compound 77] registered an inhibition at 5 µg/mL of 2%.

Regarding `CCCCCCNC(=S)N(O)Cc1ccc(-c2ccccc2)cc1` [Compound 78], 5 µg/mL produced 24% inhibition. `Cc1cccc(CNC(=S)N(O)Cc2ccc(-c3ccccc3)cc2)c1` [Compound 79] returned an inhibition at 10 µg/mL under setting [1] of 15%. Take `CCCCCCNC(=S)N(O)Cc1ccc(-c2ccc(C(C)(C)C)cc2)cc1` [Compound 80]: under setting [1], testing at 10 µg/mL gave an inhibition of 11%. With `CC(C)(C)c1ccc(-c2ccc(CN(O)C(=S)NCc3ccccc3)cc2)cc1` [Compound 81], under setting [1], the inhibition at 10 µg/mL is 20%. Turning to `Cc1cccc(CNC(=S)N(O)Cc2ccc(-c3ccc(C(C)(C)C)cc3)cc2)c1` [Compound 82], 10 µg/mL produced 30% inhibition under setting [1]. Consider `CC(C)(C)c1ccc(-c2ccc(CN(O)C(=S)Nc3ccc(Cl)c(C(F)(F)F)c3)cc2)cc1` [Compound 83], for which the IC50 was determined as 12.4 µM. For the compound `CC(C)(C)c1ccc(C(=O)Nc2cccc(CN(O)C(=S)NCc3ccccc3)c2)cc1` [Compound 84], the IC50 was determined as 15 µM. Regarding `CCCCCCNC(=S)N(O)Cc1cccc(NC(=O)c2ccc(C(C)(C)C)cc2)c1` [Compound 85], the half-inhibitory concentration (IC50) was 18.6 µM. Take `CC(C)(C)c1ccc(Sc2cccc(CN(O)C(=S)NCc3ccccc3)c2)cc1` [Compound 86]: the IC50 was found to be 5.9 µM. Turning to `CCCCCCNC(=S)N(O)Cc1cccc(Sc2ccc(C(C)(C)C)cc2)c1` [Compound 87], the IC50 was 9.9 µM. Take `CC(C)(C)c1ccc(Sc2ccc(CN(O)C(=S)NCc3ccccc3)cc2)cc1` [Compound 88]: the IC50 was 7.5 µM.

On to `CCCCCCNC(=S)N(O)Cc1ccc(Sc2ccc(C(C)(C)C)cc2)cc1` [Compound 89], for which the IC50 was found to be 5.3 µM.

Regarding `CCCCCCNC(=S)N(O)Cc1cccc(S(=O)(=O)c2ccc(C(C)(C)C)cc2)c1` [Compound 90], the IC50 is 22 µM. Consider `CC(C)(C)c1ccc([S+]([O-])c2cccc(CN(O)C(=S)NCc3ccccc3)c2)cc1` (centres unmarked) [Compound 91], for which the IC50 was 17.1 µM. As to `CC(C)(C)c1ccc(S(=O)(=O)c2cccc(CN(O)C(=S)NCc3ccccc3)c2)cc1` [Compound 92], 10 µg/mL produced 25% inhibition under setting [1].

Consider `CCCCCCNC(=S)N(O)Cc1cccc(S(=O)(=O)c2ccc(C(C)(C)C)cc2)c1` [Compound 93], for which the “Aβ Production Inhibition Activity, % inhibition at 10 μg/ml” value under setting [1] is 13%. In the case of `CC(C)(C)c1ccc(SCc2ccc(CN(O)C(=S)NCc3ccccc3)cc2)cc1` [Compound 94], the IC50 stood at 13.1 µM. With `CC(C)(C)c1ccc(SCc2ccc(CN(O)C(=S)Nc3ccc(Cl)c(C(F)(F)F)c3)cc2)cc1` [Compound 95], the half-inhibitory concentration (IC50) stood at 4.6 µM.

With `CCCCCCNC(=S)N(O)Cc1ccc(COc2ccc(C(C)(C)CC)cc2)cc1` [Compound 96], the IC50 amounted to 24.8 µM. The same measure, in the same setting: under `CCC(C)(C)c1ccc(OCc2ccc(CN(O)C(=S)NCc3ccccc3)cc2)cc1` [Compound 97] stands 10 µM; under `CCCCCCNC(=S)N(O)C(C)c1cccc(NC(=O)c2ccc(C(C)(C)C)cc2)c1` (centres unmarked) [Compound 98], 13 µM. Consider `CC(c1cccc(NC(=O)c2ccc(C(C)(C)C)cc2)c1)N(O)C(=S)NCc1ccccc1` (centres unmarked) [Compound 99], for which the inhibition at 5 µg/mL was determined as 43%. On to `Cc1cccc(CNC(=S)N(O)C(C)c2cccc(NC(=O)c3ccc(C(C)(C)C)cc3)c2)c1` (centres unmarked) [Compound 100], for which the inhibition at 5 µg/mL turned out to be 1%.

For the compound `CCCc1cc(C(C)(C)C)ccc1Oc1cccc(CN(O)C(=S)NCc2ccccc2)c1` [Compound 101], the half-maximal inhibitory concentration (IC50) was 4.5 µM.

For the compound `CCCCCCNC(=S)N(O)Cc1cccc(Oc2ccc(C(C)(C)C)cc2CCC)c1` [Compound 102], the IC50 was determined as 6.1 µM.

In the case of `CCCc1cc(C(C)(C)C)ccc1Oc1cccc(CN(O)C(=O)Nc2ccc(Cl)c(C(F)(F)F)c2)c1` [Compound 103], the IC50 is 20 µM. As to `CC(C)(C)c1ccc(Oc2ccc(NC(=S)NCc3ccccc3Cl)cc2)cc1` [Compound 104], the IC50 is 13.4 µM. `CC(C)(C)c1ccc(Oc2ccc(NC(=S)NCc3cccc(Cl)c3)cc2)cc1` [Compound 105]: the IC50 worked out at 9.4 µM. As for `CC(C)(C)c1ccc(Oc2ccc(NC(=S)NCc3ccc(Cl)cc3)cc2)cc1` [Compound 106], the IC50 stood at 9.2 µM. Take `CC(C)(C)c1ccc(Oc2ccc(NC(=S)NCc3cccc(Br)c3)cc2)cc1` [Compound 107]: the IC50 was 7.2 µM.

For `CC(C)(C)c1ccc(Oc2ccc(NC(=S)NCc3ccc(Br)cc3)cc2)cc1` [Compound 108], the IC50 was found to be 8.9 µM. For `COc1ccccc1CNC(=S)Nc1ccc(Oc2ccc(C(C)(C)C)cc2)cc1` [Compound 109], under setting [1], the inhibition at 10 µg/mL came out at 37%.

Regarding `COc1cccc(CNC(=S)Nc2ccc(Oc3ccc(C(C)(C)C)cc3)cc2)c1` [Compound 110], the IC50 stood at 21.2 µM. As for `COc1ccc(CNC(=S)Nc2ccc(Oc3ccc(C(C)(C)C)cc3)cc2)cc1` [Compound 111], the IC50 came to 8.3 µM. As to `CC(C)(C)c1ccc(Oc2ccc(NC(=S)NCc3cccc(F)c3)cc2)cc1` [Compound 112], the IC50 came out at 7.6 µM. As for `CC(C)(C)c1ccc(Oc2ccc(NC(=S)NCc3ccc(F)cc3)cc2)cc1` [Compound 113], the IC50 was found to be 5.6 µM. On the same count and under the same terms, under `CC(C)(C)c1ccc(Oc2ccc(NC(=S)Nc3ccccc3)cc2)cc1` [Compound 114] stands 18.2 µM; under `CC(C)(C)c1ccc(Oc2ccc(NC(=S)NCc3ccccc3)cc2)cc1` [Compound 115], 16.4 µM.

A word on the inhibition: it is the drop in the measured response relative to a control, in per cent. Higher therefore signals a strong effect. The term IC50 denotes the concentration that inhibits the measured activity by half.

Source of the values: patent US5814646A, “Inhibitors of amyloid beta-protein production” (Eli Lilly and Company, priority 1995, dated 1998).
